What was measured:
KRas^WT = target: T1, KRas^WT (Homo sapiens, UniProt P01116); test: KRas binding assay (TR-FRET displacement of Cy5 labelled tracer)
T1 construct: […]; biotin (biotinylated); purchased Accelegan Inc
Description: (§1) The ability of a compound to bind to KRas was measured using a TR-FRET displacement assay. […] After a 60-minute incubation at room temperature, the reaction was measured using a BMG LABTECH CLARIO star Plus via TR-FRET. […] The POC values were fit to a 4-parameter IC50 equation and the IC50 value reported.

KRas^G12A = target: T2, KRas^G12A (Homo sapiens, UniProt P01116, G12A); test: as above
T2 construct: […]; biotin (biotinylated); purchased Accelegan Inc
Description: as §1

KRas^G12D = target: T3, KRas^G12D (Homo sapiens, UniProt P01116, G12D); test: as above
T3 construct: […]; biotin (biotinylated); purchased Accelegan Inc
Description: as §1

KRas^G12R = target: T4, KRas^G12R (Homo sapiens, UniProt P01116, G12R); test: as above
T4 construct: […]; biotin (biotinylated); purchased Accelegan Inc
Description: as §1

KRas^G12S = target: T5, KRas^G12S (Homo sapiens, UniProt P01116, G12S); test: as above
T5 construct: […]; biotin (biotinylated); purchased Accelegan Inc
Description: as §1

KRas^G12V = target: T6, KRas^G12V (Homo sapiens, UniProt P01116, G12V); test: as above
T6 construct: […]; biotin (biotinylated); purchased Accelegan Inc
Description: as §1

KRas^G12C = KRas^G12C (Homo sapiens, UniProt P01116, G12C); test: biochemical
Description: as §1

KRas^G13D = KRas^G13D (Homo sapiens, UniProt P01116, G13D); test: biochemical
Description: as §1

KRas^Q61H = KRas^Q61H (Homo sapiens, UniProt P01116, Q61H); test: biochemical
Sequence of KRas^Q61H (P01116 1-169 isoform P01116-2 Q61H): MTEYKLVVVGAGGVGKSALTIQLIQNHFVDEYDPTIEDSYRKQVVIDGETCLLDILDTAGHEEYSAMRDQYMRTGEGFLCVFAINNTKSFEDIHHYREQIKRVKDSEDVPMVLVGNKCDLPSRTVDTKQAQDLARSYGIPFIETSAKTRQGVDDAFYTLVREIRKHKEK
Description: as §1

T1 sequence (P01116 1-169 isoform P01116-2): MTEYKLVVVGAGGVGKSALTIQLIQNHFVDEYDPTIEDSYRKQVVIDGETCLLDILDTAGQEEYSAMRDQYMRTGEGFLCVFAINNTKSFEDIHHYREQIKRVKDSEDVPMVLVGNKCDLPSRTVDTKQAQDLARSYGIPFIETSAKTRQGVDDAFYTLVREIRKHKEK
Sequence of KRas^G13D (P01116 1-169 isoform P01116-2 G13D): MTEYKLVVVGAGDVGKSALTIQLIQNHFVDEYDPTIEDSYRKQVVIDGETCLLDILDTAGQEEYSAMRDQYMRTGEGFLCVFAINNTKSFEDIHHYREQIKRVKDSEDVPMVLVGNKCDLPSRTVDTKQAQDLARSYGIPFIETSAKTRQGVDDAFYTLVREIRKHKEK
T5 sequence (P01116 1-169 isoform P01116-2 G12S): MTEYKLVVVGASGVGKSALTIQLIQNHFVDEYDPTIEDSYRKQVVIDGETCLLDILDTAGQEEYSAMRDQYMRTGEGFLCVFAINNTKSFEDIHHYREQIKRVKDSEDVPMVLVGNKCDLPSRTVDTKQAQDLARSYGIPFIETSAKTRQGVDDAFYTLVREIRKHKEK
T2 sequence (P01116 1-169 isoform P01116-2 G12A): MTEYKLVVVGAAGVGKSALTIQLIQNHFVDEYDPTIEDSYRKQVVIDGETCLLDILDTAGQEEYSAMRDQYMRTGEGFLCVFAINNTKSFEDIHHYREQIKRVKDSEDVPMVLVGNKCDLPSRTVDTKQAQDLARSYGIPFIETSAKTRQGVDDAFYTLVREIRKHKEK
T6 sequence (P01116 1-169 isoform P01116-2 G12V): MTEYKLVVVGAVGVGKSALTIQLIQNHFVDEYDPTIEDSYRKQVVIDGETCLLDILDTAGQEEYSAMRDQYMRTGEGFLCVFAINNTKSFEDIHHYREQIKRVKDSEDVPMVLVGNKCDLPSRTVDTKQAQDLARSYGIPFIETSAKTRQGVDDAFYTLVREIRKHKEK
T3 sequence (P01116 1-169 isoform P01116-2 G12D): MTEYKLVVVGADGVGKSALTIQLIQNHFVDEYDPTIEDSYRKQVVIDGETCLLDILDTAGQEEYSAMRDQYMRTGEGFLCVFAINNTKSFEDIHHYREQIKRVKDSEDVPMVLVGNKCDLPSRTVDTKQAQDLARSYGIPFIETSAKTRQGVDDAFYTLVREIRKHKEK
Sequence of KRas^G12C (P01116 1-169 isoform P01116-2 G12C): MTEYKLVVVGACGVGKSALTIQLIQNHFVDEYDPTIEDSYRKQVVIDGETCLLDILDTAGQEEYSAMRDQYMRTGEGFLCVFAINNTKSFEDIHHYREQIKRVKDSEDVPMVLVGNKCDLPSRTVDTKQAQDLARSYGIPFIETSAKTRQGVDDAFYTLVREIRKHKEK
T4 sequence (P01116 1-169 isoform P01116-2 G12R): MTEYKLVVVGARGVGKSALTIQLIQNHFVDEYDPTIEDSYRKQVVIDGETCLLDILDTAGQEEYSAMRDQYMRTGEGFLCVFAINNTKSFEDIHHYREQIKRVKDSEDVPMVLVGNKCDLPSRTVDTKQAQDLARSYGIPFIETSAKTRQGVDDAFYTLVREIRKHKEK

Structure (SMILES) | IC50 (KRas^WT) | IC50 (KRas^G12A) | IC50 (KRas^G12D) | IC50 (KRas^G12R) | IC50 (KRas^G12S) | IC50 (KRas^G12V) | IC50 (KRas^G12C) | IC50 (KRas^G13D) | IC50 (KRas^Q61H)
CCc1cccc2cccc(N3CCc4c(nc(OCC56CCCN5CCC6)nc4N4CCCC(P(C)(C)=O)C4)C3)c12 (stereo not drawn) [Example 112, (1-(7-(8-ethylnaphthalen-1-yl)-2-((tetrahydro-1H-pyrrolizin-7a(5H)-yl)methoxy)-5,6,7,8-tetrahydropyrido[3,4-d]pyrimidin-4-yl)piperidin-3-yl)dimethylphosphine oxide] | 412 nM | 1340 nM | 7.29 µM | 2090 nM | 1330 nM | 1580 nM | 1570 nM | 581 nM | 64 nM
Cc1cccc2cccc(N3CCc4c(nc(OCC56CCCN5CCC6)nc4N4CC5C(=O)NC(=O)C5C4)C3)c12 (stereo not drawn) [Example 80, 5-(2-((hexahydro-1H-pyrrolizin-7a-yl)methoxy)-7-(8-methylnaphthalen-1-yl)-5,6,7,8-tetrahydropyrido[3,4-d]pyrimidin-4-yl)tetrahydropyrrolo[3,4-c]pyrrole-1,3(2H,3aH)-dione] | 200 nM | 428 nM | 0.121 µM | 285 nM | 68 nM | 130 nM | 211 nM | 213 nM | 260 nM
CCc1cccc2cccc(N3CCc4c(nc(OCC56CCCN5CCC6)nc4N4CCCC(c5ccn[nH]5)C4)C3)c12 (stereo not drawn) [Example 115, 4-(3-(1H-pyrazol-5-yl)piperidin-1-yl)-7-(8-ethylnaphthalen-1-yl)-2-((tetrahydro-1H-pyrrolizin-7a(5H)-yl)methoxy)-5,6,7,8-tetrahydropyrido[3,4-d]pyrimidine] | 1150 nM | 1110 nM | 3.04 µM | 460 nM | 1350 nM | 1810 nM | 928 nM | 1400 nM | 1210 nM
CCc1cccc2cccc(N3CCc4c(nc(OCC56CCCN5CCC6)nc4N4CCCC(c5cc(=O)[nH][nH]5)C4)C3)c12 (stereo not drawn) [Example 87, 5-(1-(7-(8-ethylnaphthalen-1-yl)-2-((tetrahydro-1H-pyrrolizin-7a(5H)-yl)methoxy)-5,6,7,8-tetrahydropyrido[3,4-d]pyrimidin-4-yl)piperidin-3-yl)-1,2-dihydro-3H-pyrazol-3-one] | 1010 nM | 1140 nM | 4.88 µM | 165 nM | 1150 nM | 1870 nM | 470 nM | 1470 nM | 844 nM
CCc1cccc2cccc(N3CCc4c(nc(OCC56CCCN5CCC6)nc4N4CC(C)CC(CO)C4)C3)c12 (stereo not drawn) [Example 133, (1-(7-(8-ethylnaphthalen-1-yl)-2-((tetrahydro-1H-pyrrolizin-7a(5H)-yl)methoxy)-5,6,7,8-tetrahydropyrido[3,4-d]pyrimidin-4-yl)-5-methylpiperidin-3-yl)methanol] | 1340 nM | 1020 nM | 0.945 µM | 781 nM | 1020 nM | 936 nM | 871 nM | 1500 nM | 1440 nM
CCc1cccc2cccc(N3CCc4c(nc(OCC56CCCN5CCC6)nc4N4CCC(n5ccnn5)CC4)C3)c12 [Example 151, 4-(4-(1H-1,2,3-triazol-1-yl)piperidin-1-yl)-7-(8-ethylnaphthalen-1-yl)-2-((tetrahydro-1H-pyrrolizin-7a(5H)-yl)methoxy)-5,6,7,8-tetrahydropyrido[3,4-d]pyrimidine] | 3650 nM | 2690 nM | 30.9 µM | 1610 nM | 4720 nM | 5410 nM | 3470 nM | 2700 nM | 4580 nM
CCc1cccc2cccc(N3CCc4c(nc(OCC56CCCN5CCC6)nc4N4CCCN(C(N)=O)CC4)C3)c12 [Example 95, 4-(7-(8-ethylnaphthalen-1-yl)-2-((tetrahydro-1H-pyrrolizin-7a(5H)-yl)methoxy)-5,6,7,8-tetrahydropyrido[3,4-d]pyrimidin-4-yl)-1,4-diazepane-1-carboxamide] | 255 nM | 655 nM | 4.7 µM | 724 nM | 953 nM | 990 nM | 656 nM | 254 nM | 343 nM
CCc1cccc2cccc(N3CCc4c(nc(OCC56CCCN5CCC6)nc4NCc4nnc(N)o4)C3)c12 [Example 136, 5-(((7-(8-ethylnaphthalen-1-yl)-2-((tetrahydro-1H-pyrrolizin-7a(5H)-yl)methoxy)-5,6,7,8-tetrahydropyrido[3,4-d]pyrimidin-4-yl)amino)methyl)-1,3,4-oxadiazol-2-amine] | 1560 nM | 1540 nM | 3.39 µM | 1630 nM | 1990 nM | 868 nM | 969 nM | 3280 nM | 2300 nM
CCc1cccc2cccc(N3CCc4c(nc(OCC56CCCN5CCC6)nc4NCc4ccc5nncn5c4)C3)c12 [Example 39, N-([1,2,4]triazolo[4,3-a]pyridin-6-ylmethyl)-7-(8-ethylnaphthalen-1-yl)-2-((hexahydro-1H-pyrrolizin-7a-yl)methoxy)-5,6,7,8-tetrahydropyrido[3,4-d]pyrimidin-4-amine] | 1370 nM | 425 nM | 7.11 µM | 239 nM | 592 nM | 221 nM | 317 nM | 1530 nM | 1640 nM
CCc1cccc2cccc(N3CCc4c(nc(OCC56CCCN5CCC6)nc4N4CC5(CNC(=O)N5)C4)C3)c12 [Example 149, 2-(7-(8-ethylnaphthalen-1-yl)-2-((tetrahydro-1H-pyrrolizin-7a(5H)-yl)methoxy)-5,6,7,8-tetrahydropyrido[3,4-d]pyrimidin-4-yl)-2,5,7-triazaspiro[3.4]octan-6-one] | 4750 nM | 2540 nM | 43 µM | 1820 nM | 3350 nM | 1420 nM | 1850 nM | 6890 nM | 6310 nM
CCc1cccc2cccc(N3CCc4c(nc(OCC56CCCN5CCC6)nc4N4CCC(O)C(CO)CC4)C3)c12 (stereo not drawn) [Example 13, 1-(7-(8-ethylnaphthalen-1-yl)-2-((tetrahydro-1H-pyrrolizin-7a(5H)-yl)methoxy)-5,6,7,8-tetrahydropyrido[3,4-d]pyrimidin-4-yl)-5-(hydroxymethyl)azepan-4-ol] | 41 nM | 51 nM | 0.29 µM | 99 nM | 70 nM | 73 nM | 82 nM | 40 nM | 57 nM
CCc1cccc2cccc(N3CCc4c(nc(OCC56CCCN5CCC6)nc4N4CCCN(C(=O)c5ccco5)CC4)C3)c12 [Example 102, (4-(7-(8-ethylnaphthalen-1-yl)-2-((tetrahydro-1H-pyrrolizin-7a(5H)-yl)methoxy)-5,6,7,8-tetrahydropyrido[3,4-d]pyrimidin-4-yl)-1,4-diazepan-1-yl)(furan-2-yl)methanone] | 357 nM | 805 nM | 15 µM | 3080 nM | 3090 nM | 6450 nM | 2990 nM | 363 nM | 424 nM
CCc1cccc2cccc(N3CCc4c(nc(OCC56CCCN5CCC6)nc4N4CCCCCC(S(C)(=O)=O)C4)C3)c12 (stereo not drawn) [Example 14, 7-(8-ethylnaphthalen-1-yl)-4-(3-(methylsulfonyl)azocan-1-yl)-2-((tetrahydro-1H-pyrrolizin-7a(5H)-yl)methoxy)-5,6,7,8-tetrahydropyrido[3,4-d]pyrimidine] | 119 nM | 145 nM | 0.256 µM | 233 nM | 171 nM | 112 nM | 173 nM | 118 nM | 135 nM
CCc1cccc2cccc(N3CCc4c(nc(OCC56CCCN5CCC6)nc4NC4CC5CC5C4)C3)c12 (stereo not drawn) [Example 170, N-(bicyclo[3.1.0]hexan-3-yl)-7-(8-ethylnaphthalen-1-yl)-2-((tetrahydro-1H-pyrrolizin-7a(5H)-yl)methoxy)-5,6,7,8-tetrahydropyrido[3,4-d]pyrimidin-4-amine] | 17000 nM | 27900 nM | 25 µM | 11900 nM | 16400 nM | 5870 nM | 15100 nM | 16400 nM | 17000 nM
CCc1cccc2cccc(N3CCc4c(nc(OCC56CCCN5CCC6)nc4NC4CN(C(N)=O)C4)C3)c12 [Example 147, 3-((7-(8-ethylnaphthalen-1-yl)-2-((tetrahydro-1H-pyrrolizin-7a(5H)-yl)methoxy)-5,6,7,8-tetrahydropyrido[3,4-d]pyrimidin-4-yl)amino)azetidine-1-carboxamide] | 2450 nM | 2710 nM | 1.32 µM | 1490 nM | 2150 nM | 1450 nM | 1650 nM | 3630 nM | 3210 nM
CCc1cccc2cccc(N3CCc4c(nc(OCC56CCCN5CCC6)nc4N4CCC(O)C(CO)C4)C3)c12 (stereo not drawn) [Example 109, 1-(7-(8-ethylnaphthalen-1-yl)-2-((tetrahydro-1H-pyrrolizin-7a(5H)-yl)methoxy)-5,6,7,8-tetrahydropyrido[3,4-d]pyrimidin-4-yl)-3-(hydroxymethyl)piperidin-4-ol] | 519 nM | 735 nM | 1.77 µM | 387 nM | 612 nM | 690 nM | 456 nM | 893 nM | 898 nM

From patent US12421253B2 (Mirati Therapeutics, Inc., priority 2020, dated 2025)
